Patent US11220690B2, “Formulation” (ATLANTIC PHARMACEUTICALS (HOLDINGS) LTD, priority 2017, dated 2022)

Columns and labels:
[1] = Circular Dichroism (CD) spectroscopy, thermal stability of secondary structure; assay type: physicochemical
Text: SEQ ID NO:1 was therefore subjected to Circular Dichroism (CD) spectroscopy to gather information about the possible secondary structure. CD of DNA can be utilized to detect all 3 major forms of duplex structure (B, A and Z) and is sensitive to conditions that disrupt the structure such a heating. Of interest was the stability of any secondary structure detected at or above physiologic temperatures. Shown in FIG. 6 is the CD spectra of sample SEQ ID NO:1 in ddH20 at 4 C.
Additional thermal denaturation of the putative duplex was also studied in the presence of Na^+ at concentrations of 50 mM and 150 mM. Sodium fluoride was used as Cl^− ions interfere with the CD spectra in this UV region.
Additional experiments were conducted to test the influence of Mg^++ and polyamines on the stability of the structure.

[2] = tested on: pigmented C57BL/6N mice; test: Murine model of dry eye by scopolamine administration; assay type: in vivo, Mouse; conditions: for Corneal fluorescein staining score (mean ± SD): 5 μL in both eyes, one dose per day
Text: In a model of mice, the application of transdermal scopolamine patches to the mid-tail is used to reduce aqueous tear production and thus mimic lacrimal gland insufficiency. The function of scopolamine is to induce a pharmacologic blockade of cholinergic receptors in the lacrimal gland and therefore to decrease aqueous production. The desiccation is amplified by adding environmental stress Animals are exposed to a low-humidity environment and constant airflow.
• Species: Mouse. • Strain: C57BL/6N (pigmented). • Age: Approximately 6-7 weeks (at the first day of induction). • Number/sex: 55 females (study 40; reserve 15).
Mice were treated with transdermal scopolamine administration (0.5 mg/72 h; Scopoderm TTS®). The transdermal scopolamine patch was wrapped near the tail base of the mouse, secured with cellophane tape. Patches were reapplied every 48 hours.
Mice were randomized into 4 groups of 10 animals. The study was divided into 2 experimental sets with 5 animals of each group represented.
All test items, control items and comparator item were instilled in both eyes (5 μL per administration), using a micropipette.
Tear production and corneal defects were assessed at baseline, on Days 3, 6 and 10 using phenol red thread (PRT) and corneal fluorescence staining (CFS), respectively, for each animal of the 4 groups.
A) Measurement of Aqueous Tear Production PRT Test. • Tear production was measured with the PRT test (Zone-Quick, FCI-Ophthalmics) on both eyes, before administration on Day 3 and at least one hour after the second treatment for the other days of the study. The thread was placed in the lateral cantus of the lateral conjunctival fornix for 30 seconds. The thread wet by tears would turn red, indicated aqueous tear production.
B) Corneal Fluorescein Staining (CFS) • At the different time points the measurement was performed before administration on Day 3 and at least one hour after the second treatment for the other days of the study. The eyes of the animals from all groups were examined by slit-lamp observation using blue light after 0.5% fluorescein eye drop instillation (0.5 μL). Punctuate staining was recorded with the standardized National Eye Institute (NEI) grading system giving a 0-3 score to each of the 5 areas in which the corneas were divided. Results: Animal Behaviour and Body Weights

[3] = biological target: T1, TLR9 (Homo sapiens, UniProt Q9NR96); test: Inhibition of TLR9-mediated NF-kB induction activated by CpG ODN2006, luciferase reporter HEK 293 cell line; assay type: cell-based; set-up: host or cells: HEK 293 (TLR9/NF-kB luciferase reporter line)
T1 sequence (Q9NR96 26-1032): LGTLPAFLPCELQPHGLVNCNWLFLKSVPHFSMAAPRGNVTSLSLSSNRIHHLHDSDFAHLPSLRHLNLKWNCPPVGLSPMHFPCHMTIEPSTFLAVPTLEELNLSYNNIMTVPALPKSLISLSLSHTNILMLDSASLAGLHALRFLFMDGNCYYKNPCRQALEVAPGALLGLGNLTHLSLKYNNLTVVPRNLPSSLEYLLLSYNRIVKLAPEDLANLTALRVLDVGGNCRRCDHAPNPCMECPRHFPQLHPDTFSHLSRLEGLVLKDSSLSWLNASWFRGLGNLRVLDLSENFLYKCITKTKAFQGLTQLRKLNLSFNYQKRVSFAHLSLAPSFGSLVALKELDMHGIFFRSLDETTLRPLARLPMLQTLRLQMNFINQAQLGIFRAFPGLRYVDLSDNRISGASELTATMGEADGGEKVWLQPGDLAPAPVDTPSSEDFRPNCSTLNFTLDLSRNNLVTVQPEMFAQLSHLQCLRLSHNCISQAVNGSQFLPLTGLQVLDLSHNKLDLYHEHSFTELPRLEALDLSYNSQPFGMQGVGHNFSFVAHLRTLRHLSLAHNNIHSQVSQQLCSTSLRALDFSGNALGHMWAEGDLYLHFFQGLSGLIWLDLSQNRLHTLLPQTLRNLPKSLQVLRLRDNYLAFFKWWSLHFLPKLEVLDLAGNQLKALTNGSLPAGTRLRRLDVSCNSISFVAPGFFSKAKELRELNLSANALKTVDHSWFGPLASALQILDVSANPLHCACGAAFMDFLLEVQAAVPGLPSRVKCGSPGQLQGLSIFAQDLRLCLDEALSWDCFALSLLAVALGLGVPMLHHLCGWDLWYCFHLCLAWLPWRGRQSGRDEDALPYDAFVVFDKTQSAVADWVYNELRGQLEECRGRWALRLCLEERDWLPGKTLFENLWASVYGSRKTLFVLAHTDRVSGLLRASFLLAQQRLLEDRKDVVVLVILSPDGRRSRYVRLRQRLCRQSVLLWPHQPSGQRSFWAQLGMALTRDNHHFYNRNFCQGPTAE
Description: SEQ ID NO:1 was next screened for dose responsive inhibition activity to determine the IC50 against TLR9-mediated NF-kB induction at seven different doses (0.1, 1, 5, 10, 25, 50 and 100 μM) in triplicate. Briefly, the TLR9/NF-kB luciferase reporter HEK 293 cell line was plated in 96-well white solid plates at 5×10^4 cells per well for 16 h. Cells were pretreated with different doses of SEQ ID NO:1 in triplicate for 1 h. Cells were then treated with 20 ug/ml of CpG ODN2006 to activate TLR9. After 16 h, luciferase activity was measured and analyzed.

[4] = biological target: T1, TLR9; test: Inhibition of TLR-9 activated by E. coli genomic DNA; assay type: cell-based; conditions: E. coli genomic DNA as activator of TLR-9
Text: While the data of FIG. 4 indicate that SEQ ID NO:1 is more likely to form a homodimer than a heterodimer with ODN2006, additional experiments tested the antagonist activity of SEQ ID NO:1 in the presence of E. coli genomic DNA as the activator.

[5] = biological target: T1, TLR9; test: TLR9 activation (agonist) screen, TLR9/NF-kB luciferase reporter HEK 293 cell line; assay type: cell-based; set-up: host or cells: HEK 293 (TLR9/NF-kB luciferase reporter line); conditions: up to concentrations as high as 100 uM, 16 h treatment
Description: […] Briefly, the TLR9/NF-kB luciferase reporter HEK 293 cell line (Abeomics, San Diego, Calif.) was plated in 96-well white solid plates at 5×10^4 cells per well for 16 h. […] Luciferase activity was then measured and analyzed.

Q: For “alicaforsen (GCCCAAGCTGGCATCCGTCA; chemistry not given here; listed as Homo sapiens) [SEQ ID NO:1]”, which “intensity of the 190 nm peak after cooling back” value ([1]; 50 and 150 mM sodium, samples cooled back to 20° C. after heating) is on record?
A: returned to pre-heated levels

Q: What about the “structure retained (intensity of the 190 nm peak) on heating” value ([1]; both 50 and 150 mM sodium (sodium fluoride), to 40° C.) of the same substance?
A: at least 50%

Q: What about the “loss of signal strength of positive CD band at 190 nm” value ([1]; in ddH20, heating to 80° C.) of the same substance?
A: > 85%

Q: And the “effect of spermine on secondary structure (CD spectra)” value ([1]; spermine at 5 mM in the presence of 50 mM Na+)?
A: completely abolished the secondary structure

Q: And the “Corneal fluorescein staining score (mean ± SD)” value ([2]; Day 6, alicaforsen 1 mM)?
A: 10.5 ± 2.6

Q: What about the “Corneal fluorescein staining score (mean ± SD)” value ([2]; Day 6, alicaforsen 10 mM) of the same substance?
A: 10.8 ± 2.0

Q: What about the “Corneal fluorescein staining score (mean ± SD)” value ([2]; Day 10, alicaforsen 1 mM, listed as ALICAFORSEN) of the same substance?
A: 9.3 ± 3.1

Q: What about the “Corneal fluorescein staining score (mean ± SD)” value ([2]; Day 10, alicaforsen 1 mM, listed as alicaforsen) of the same substance?
A: lower than the Vehicle group

Q: And the “Corneal fluorescein staining score (mean ± SD)” value ([2]; Day 10, alicaforsen 10 mM, listed as ALICAFORSEN)?
A: 9.7 ± 2.2

Q: And the “Corneal fluorescein staining score (mean ± SD)” value ([2]; Day 10, alicaforsen 10 mM, listed as alicaforsen)?
A: lower than the Vehicle group

Q: And the clinical tolerability ([2]; multiple topical administrations, 1 mM and 10 mM)?
A: clinically well tolerated

Q: What about the TLR-9 antagonist activity ([3]; ODN2006 as activator) of the same substance?
A: antagonist of TLR-9

Q: What about the “concentrations required for TLR-9 antagonism compared with inhibition of ICAM-1 expression” value ([3]; comparative dose responses, FIG. 3) of the same substance?
A: requires higher concentrations than the inhibition of ICAM-1 expression

Q: And the “antagonist activity in the presence of E. coli genomic DNA as the activator” value [4]?
A: remained antagonistic

Q: What about the “agonist activity (TLR9 activation)” value [5] of the same substance?
A: devoid of agonist activity
